Like-named read-outs stand apart in the source and are kept apart here.
Experiments:
Type in all cases: biochemical
PKC zeta = target: T1, PKC zeta (Homo sapiens, UniProt Q05513); assay: Kinase screen: PKC zeta assay
T1 sequence (Q05513 1-592): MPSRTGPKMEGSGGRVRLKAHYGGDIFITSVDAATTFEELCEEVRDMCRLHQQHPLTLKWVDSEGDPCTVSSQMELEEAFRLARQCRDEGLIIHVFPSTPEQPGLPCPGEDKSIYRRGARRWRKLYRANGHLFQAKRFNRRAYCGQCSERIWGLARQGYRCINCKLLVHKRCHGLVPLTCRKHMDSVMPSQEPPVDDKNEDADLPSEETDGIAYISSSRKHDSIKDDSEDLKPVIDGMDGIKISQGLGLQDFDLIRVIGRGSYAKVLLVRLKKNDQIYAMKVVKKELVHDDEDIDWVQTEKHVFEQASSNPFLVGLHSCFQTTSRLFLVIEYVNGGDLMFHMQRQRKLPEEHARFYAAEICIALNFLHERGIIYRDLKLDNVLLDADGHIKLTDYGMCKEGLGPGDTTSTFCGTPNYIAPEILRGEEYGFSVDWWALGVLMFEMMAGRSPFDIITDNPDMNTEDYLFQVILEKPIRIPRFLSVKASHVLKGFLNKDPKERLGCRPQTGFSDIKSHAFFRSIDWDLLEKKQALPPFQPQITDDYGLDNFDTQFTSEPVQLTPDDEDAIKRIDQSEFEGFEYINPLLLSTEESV
Method: (§1) Generally, the same procedure was used for all assays. Since the total assay volume was 25.5 microliters, 0.5 microliters of inhibitors at 51× assay concentration were added to the plates before any other addition.
(§2) The basic procedure was to add 0.5 microliters inhibitor/control in DMSO to plate. Fifteen microliters of enzyme/substrate/buffer mix were added and incubated for 5 min. Ten microliters MgATP at the relevant concentration were added and incubated for 30 min. The assay was stopped by adding 5 microliters of 3% orthophosphoric acid. The assay was transferred to a p81 filter plate and read in a scintillation counter of 30 sec/well. Note that this assay procedure was not followed for MKK1, which instead involved a two-step assay, and PKC alpha, which required the addition of lipid vesicles.
PKC zeta assay: PKC zeta (5-20 mU diluted in 50 mM Tris pH 7.5, 0.1 mM EGTA, 0.1% b-mercaptoethanol, 1 mg/ml BSA, 100 μM Vanadate) was assayed against a substrate peptide ([…]) (SEQ ID NO: 34) in a final volume of 25.5 μl containing 50 mM Tris pH 7.5, 0.05% b-mercaptoethanol, 10 μM Vanadate, 300 μM substrate peptide, 10 mM magnesium acetate and 0.005 mM [33P-g-ATP] (50-1000 cpm/pmole) and incubated for 30 min at room temperature. Assays were stopped by addition of 5 μl of 0.5 M (3%) orthophosphoric acid and then harvested onto P81 Unifilter plates with a wash buffer of 50 mM orthophosphoric acid.

ROCK 2 = ROCK 2 (Homo sapiens, UniProt O75116); assay: Kinase screen: ROCK-II (ROKa) assay
Sequence of ROCK 2 (O75116 whole entry, species assumed): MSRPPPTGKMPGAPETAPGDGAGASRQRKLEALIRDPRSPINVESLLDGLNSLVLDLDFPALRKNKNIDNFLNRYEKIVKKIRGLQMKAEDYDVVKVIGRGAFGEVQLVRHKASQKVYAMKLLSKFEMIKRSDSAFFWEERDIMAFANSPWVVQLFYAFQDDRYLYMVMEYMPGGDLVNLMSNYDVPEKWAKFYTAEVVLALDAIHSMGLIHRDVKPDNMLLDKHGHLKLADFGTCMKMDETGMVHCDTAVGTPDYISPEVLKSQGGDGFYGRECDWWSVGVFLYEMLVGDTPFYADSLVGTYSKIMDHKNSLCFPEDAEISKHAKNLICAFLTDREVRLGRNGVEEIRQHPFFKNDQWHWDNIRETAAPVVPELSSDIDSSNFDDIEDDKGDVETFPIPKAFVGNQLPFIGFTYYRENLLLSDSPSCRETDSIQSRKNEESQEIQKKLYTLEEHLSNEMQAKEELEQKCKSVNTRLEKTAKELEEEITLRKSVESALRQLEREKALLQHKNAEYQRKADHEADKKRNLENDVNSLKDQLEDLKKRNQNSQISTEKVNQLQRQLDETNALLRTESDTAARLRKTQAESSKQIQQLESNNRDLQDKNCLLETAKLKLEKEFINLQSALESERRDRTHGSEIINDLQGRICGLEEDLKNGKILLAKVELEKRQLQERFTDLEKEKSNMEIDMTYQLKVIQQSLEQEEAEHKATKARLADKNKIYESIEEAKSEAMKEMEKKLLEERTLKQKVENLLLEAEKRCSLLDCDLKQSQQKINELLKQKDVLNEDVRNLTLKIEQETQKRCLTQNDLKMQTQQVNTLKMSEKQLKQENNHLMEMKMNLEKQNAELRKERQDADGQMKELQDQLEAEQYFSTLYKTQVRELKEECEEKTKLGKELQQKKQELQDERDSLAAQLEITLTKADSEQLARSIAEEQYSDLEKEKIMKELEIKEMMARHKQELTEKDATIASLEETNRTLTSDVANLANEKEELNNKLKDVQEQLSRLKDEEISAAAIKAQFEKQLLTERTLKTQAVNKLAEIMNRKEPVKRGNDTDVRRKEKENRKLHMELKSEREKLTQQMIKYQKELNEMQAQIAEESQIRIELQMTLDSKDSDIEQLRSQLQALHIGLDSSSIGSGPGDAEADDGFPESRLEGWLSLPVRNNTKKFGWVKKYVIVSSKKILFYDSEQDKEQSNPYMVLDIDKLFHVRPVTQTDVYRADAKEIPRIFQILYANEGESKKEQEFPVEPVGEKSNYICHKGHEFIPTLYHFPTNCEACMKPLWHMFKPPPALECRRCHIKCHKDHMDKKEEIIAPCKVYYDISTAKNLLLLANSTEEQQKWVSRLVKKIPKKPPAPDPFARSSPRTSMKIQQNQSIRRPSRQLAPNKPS
Method: as §1, §2
ROCK-II (ROKa) assay: ROCK-II (ROKa) (5-20 mU diluted in 50 mM Tris pH 7.5, 0.1 mM EGTA, 0.1% b-mercaptoethanol, 1 mg/ml BSA) was assayed against Long S6 substrate peptide ([…]) (SEQ ID NO: 10) in a final volume of 25.5 μl containing 50 mM Tris pH 7.5, 0.1 mM EGTA, 30 μM Long S6 substrate peptide, 10 mM magnesium acetate and 0.02 mM [33P-g-ATP] (50-1000 cpm/pmole) and incubated for 30 min at room temperature. Assays were stopped by addition of 5 μl of 0.5 M (3%) orthophosphoric acid and then harvested onto P81 Unifilter plates with a wash buffer of 50 mM orthophosphoric acid.

P38β MAPK = P38β MAPK (Homo sapiens, UniProt Q15759); assay: Kinase screen: SAPK 2b/p38β2 assay
Sequence of P38β MAPK (Q15759 whole entry): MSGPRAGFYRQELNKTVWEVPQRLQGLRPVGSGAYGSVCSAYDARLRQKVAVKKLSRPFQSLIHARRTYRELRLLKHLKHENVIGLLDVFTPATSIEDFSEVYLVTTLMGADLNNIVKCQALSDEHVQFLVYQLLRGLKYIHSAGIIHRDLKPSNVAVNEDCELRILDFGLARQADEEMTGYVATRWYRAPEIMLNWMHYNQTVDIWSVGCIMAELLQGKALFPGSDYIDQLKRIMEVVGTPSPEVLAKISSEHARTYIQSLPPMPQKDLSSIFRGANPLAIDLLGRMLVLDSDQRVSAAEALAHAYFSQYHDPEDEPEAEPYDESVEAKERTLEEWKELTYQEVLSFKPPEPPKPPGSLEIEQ
Method: as §1, §2
SAPK 2b/p38β2 assay: SAPK 2b/p38β2 (5-20 mU diluted in 50 mM Tris pH 7.5, 0.1 mM EGTA, 0.1 mM Na3VO4, 0.1% b-mercaptoethanol, 1 mg/ml BSA) was assayed against MBP in a final volume of 25.5 μl containing 25 mM Tris pH 7.5, 0.1 mM EGTA, 0.33 mg/ml MBP, 10 mM magnesium acetate and 0.02 mM [33P-g-ATP] (50-1000 cpm/pmole) and incubated for 30 min at room temperature. Assays were stopped by addition of 5 μl of 0.5 M (3%) orthophosphoric acid and then harvested onto P81 Unifilter plates with a wash buffer of 50 mM orthophosphoric acid.

S6K1 = S6K1 (Homo sapiens, UniProt P23443); assay: Kinase screen: S6K1/P70 S6K assay
Sequence of S6K1 (P23443 whole entry, species assumed): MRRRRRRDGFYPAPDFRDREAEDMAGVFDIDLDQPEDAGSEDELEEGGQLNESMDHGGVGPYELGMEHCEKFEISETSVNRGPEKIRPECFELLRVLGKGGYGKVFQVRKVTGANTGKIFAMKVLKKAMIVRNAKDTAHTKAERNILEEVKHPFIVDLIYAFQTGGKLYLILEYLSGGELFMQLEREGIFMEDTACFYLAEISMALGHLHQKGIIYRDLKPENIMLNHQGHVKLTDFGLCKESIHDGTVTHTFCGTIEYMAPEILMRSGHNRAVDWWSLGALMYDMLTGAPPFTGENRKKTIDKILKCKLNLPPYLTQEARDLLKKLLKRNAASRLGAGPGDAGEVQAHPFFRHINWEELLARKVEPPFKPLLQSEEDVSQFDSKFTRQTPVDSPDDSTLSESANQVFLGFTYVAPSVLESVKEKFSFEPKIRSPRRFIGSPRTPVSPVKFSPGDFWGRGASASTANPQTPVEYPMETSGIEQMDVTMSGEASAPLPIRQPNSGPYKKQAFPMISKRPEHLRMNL
Method: as §1, §2
(50-1000 cpm/pmole) and incubated for 30 min at room temperature. Assays were stopped by addition of 5 μl of 0.5 M (3%) orthophosphoric acid and then harvested onto P81 Unifilter plates with a wash buffer of 50 mM orthophosphoric acid.

CDK2-Cyclin A = CDK2-Cyclin A (Homo sapiens, UniProt P24941); assay: Kinase screen: CDK2/cyclin A assay
Method: Generally, the same procedure was used for all assays.
as §2
CDK2/cyclin A assay: CDK2/cyclin A (5-20 mU diluted in 50 mM Hepes pH 7.5, 1 mM DTT, 0.02% Brij35, 100 mM NaCl) was assayed against Histone H1 in a final volume of 25.5 μl containing 50 mM Hepes pH7.5, 1 mM DTT, 0.02% Brij35, 100 mM NaCl, Histone H1 (1 mg/ml), 10 mM magnesium acetate and 0.02 mM [33P-g-ATP] (500-1000 cpm/pmole) and incubated for 30 min at room temperature. Assays were stopped by addition of 5 μl of 0.5 M (3%) orthophosphoric acid and then harvested onto P81 Unifilter plates with a wash buffer of 50 mM orthophosphoric acid.

[1] = 10 micromolar compound, read-out: mean activity remaining (as a percentage of the original activity), PKC zeta
[2] = 10 micromolar compound, read-out: mean activity remaining (as a percentage of the original activity), ROCK 2
[3] = 10 micromolar compound, read-out: mean activity remaining (as a percentage of the original activity), p38b MAPK
[4] = 10 micromolar compound, read-out: mean activity remaining (as a percentage of the original activity), S6K1
[5] = 10 micromolar compound, read-out: mean activity remaining (as a percentage of the original activity), CDK 2 - Cyelin A

SMILES	remaining activity at 10 µM (PKC zeta; [1]) [%]	remaining activity at 10 µM (ROCK 2; [2]) [%]	remaining activity at 10 µM (P38β MAPK; [3]) [%]	remaining activity at 10 µM (S6K1; [4]) [%]	remaining activity at 10 µM (CDK2-Cyclin A; [5]) [%]	other results
CC(C)c1cnn2c(NCc3ccccc3)cc(NCCCCCCCN)nc12 [BS-181]	–	–	–	–	–	remaining activity at 10 µM (PKC zeta; PKC zeta, 10 μM, read-out: Mean Remaining Enzyme Activity (%)): 114%; remaining activity at 10 µM (ROCK 2; ROCK 2, 10 μM, read-out: Mean Remaining Enzyme Activity (%)): 76%; remaining activity at 10 µM (P38β MAPK; P38β MAPK, 10 μM, read-out: Mean Remaining Enzyme Activity (%)): 115%; remaining activity at 10 µM (S6K1; S6K1, 10 μM, read-out: Mean Remaining Enzyme Activity (%)): 95%; remaining activity at 10 µM (CDK2-Cyclin A; CDK2-Cyclin A, 10 μM, read-out: Mean Remaining Enzyme Activity (%)): 9%; IC50 (CDK2-Cyclin A; kinase screen): 750 nM
C=C[C@H](CO)Nc1cc(NCc2ccccc2)n2ncc(C(C)C)c2n1 [ICEC0065]	84	95	104	78	3	–
CC[C@H](CO)Nc1cc(NCc2ccccc2)n2ncc(C(C)C)c2n1 [ICEC0067]	76	85	98	74	5	–
CC(C)c1cnn2c(NCc3ccccc3)cc(N[C@@H](CO)[C@H](O)CO)nc12 [ICEC0318, (3S)-3-(7-(Benzylamino)-3-isopropylpyrazolo[1,5-a]pyrimidin-5-ylamino)butane-1,2,4-triol]	64	102	94	77	–	–
CC(C)c1cnn2c(NCc3ccccc3F)cc(NCCCCCN)nc12 [ICEC-0232]	–	–	–	–	–	mean activity remaining (as a percentage of the original activity), PKC zeta (PKC zeta; 10 micromolar compound): 65%; mean activity remaining (as a percentage of the original activity), ROCK 2 (ROCK 2; 10 micromolar compound): 86%; mean activity remaining (as a percentage of the original activity), p38b MAPK (P38β MAPK; 10 micromolar compound): 102%; mean activity remaining (as a percentage of the original activity), S6K1 (S6K1; 10 micromolar compound): 42%; mean activity remaining (as a percentage of the original activity), CDK 2 - Cyelin A (CDK2-Cyclin A; 10 micromolar compound): 9%

— patent publication US8067424B2, “Selective inhibitors for cyclin-dependent kinases” (Emory University, priority 2007, dated 2011)
